Results as given in patent US5854036A, “Sesquiteterpenic dervatives” (Gruppo Lepetit S.p.A., priority 1994, dated 1998).
Entries after “also recorded” stand apart in the source; their conditions may differ.

Legend:
[1] = target: T1, inositol monophosphatase (EC 3.1.3.25) (Bos taurus, UniProt P20456); experiment: inhibition of inositol monophosphatase (IMPase, EC 3.1.3.25); phosphate liberated from 4 mM 2-glycerolphosphate, molybdate coloration; format: biochemical, animal; settings: for IC50: Table 1, pH 7.5, 4 mM 2-glycerolphosphate, 5 ug/ml IMPase, 30 minutes, read-out: IC50 (amount of inhibitor required to inhibit the enzyme activity by 50%) (converted)
T1 construct: host or cells: animal brain or recombinant E. coli expressing animal IMPase
T1 sequence (P20456 1-277): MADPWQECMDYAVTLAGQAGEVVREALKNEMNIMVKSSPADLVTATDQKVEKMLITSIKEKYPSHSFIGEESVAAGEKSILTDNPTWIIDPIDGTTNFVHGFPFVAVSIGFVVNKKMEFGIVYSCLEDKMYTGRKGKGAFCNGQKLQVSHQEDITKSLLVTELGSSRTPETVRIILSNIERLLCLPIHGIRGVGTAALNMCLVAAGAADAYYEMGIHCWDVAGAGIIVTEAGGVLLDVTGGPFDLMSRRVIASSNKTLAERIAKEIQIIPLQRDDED
Text: For determining said activity, IMPase with a purity higher than 90% as judged by SDS-PAGE (sodium dodecyl sulphate polyacrylamide gel electrophoresis) is purified as described in P. D. Pelton and A. J.
Ganzhorn, Journal Biolog. Chem., 267, 1992, pp. 5916-5920. The enzyme can be purified from animal brain or from recombinant E. coli strains expressing animal IMPase. Although crude enzyme preparations can also be used it is preferable to use purified enzyme. The purified enzyme routinely has a specific activity of 25 μmol of Pi/min/mg of protein as determined in a standard assay (P. V. Attwood et al., Biochem. Jour., 1988, 253, pp. 387-394) with 4 mH 2-glycerolphosphate as substrate.
The enzyme activity may be determined according to A. J. Ganzhorn and M. C. Chanal, Biochem., 1990, 29; the reaction mixture contains 50mM Tris-HCl, pH 7.5, 2 mM magnesium chloride and 0.1 mM EGTA. Then, 5 ug/ml of IMPase and 4 mM of 2-glycerolphosphate substrate are added to the reaction mixture; alternatively, it is also possible to add the substrate directly into the reaction mixture, before adding the enzyme.
The reaction is considered terminated after 30 minutes from the addition of the substrate or the enzyme (depending on which one is added later); the liberated phosphate is determined by molybdate coloration (P. V. Attwood et al., Biochem. Jour., 1988, 253, pp. 387-394) at 350 nm with a Shimadzu spectrophotometer UV 2100.
The enzyme reaction is performed either in the absence or in the presence of various concentrations of 6'β-Stachybotrydial or MDL63394 to determine the amount of inhibitor required to inhibit the enzyme activity by 50% (IC50); the results are reported in Table 1, compared with the activity of L-671,776.

[2] = system: complement system; settings: literature statement; cited from earlier work
[3] = system: inositol monophosphatase; settings: literature statement; cited from earlier work
[4] = system: manic symptoms / bipolar disorder; settings: cited from earlier work
[5] = cited from earlier work

C[C@@H]1CCC2C(C)(C)[C@@H](O)CC[C@]2(C)[C@@]12Cc1c(O)cc(C=O)c(C=O)c1O2 (stereo partly drawn) [6'β-Stachybotrydial]
IC50 [1]: 64.7 µM | inhibitory activity against the enzyme inositol monophosphatase ([1]; qualitative statement): show inhibitory activity

C[C@@H]1CCC2C(C)(C)[C@H](O)C(O)C[C@]2(C)[C@@]12Cc1c(O)cc(C=O)c(C=O)c1O2 (stereo partly shown) [K-76]
inhibitor of the complement system [2]: inhibitor of the complement system

CC1CCC2C(C)(C)C(O)CCC2(C)C12Cc1c(O)cc(CO)c(C=O)c1O2 [L-671,776]
IC50 [1]: 463 µM | IMPase-inhibiting activity [3]: shows the above IMPase-inhibiting activity

lithium
time to exert antimanic effect ([4]; acute bipolar disorder): 7 to 10 days | antimanic / prophylactic effect ([4]; manic patients): highly specific in alleviating manic symptoms; also recorded: clear prophylaxis against disease recurrences and deterioration has been demonstrated | IMPase-inhibiting activity [3]: inhibits the activity of said enzyme | adverse effects ([5]; lithium therapy): can cause a transient leukocytosis, can cause patients with a borderline thyroid reserve to become clinically hypothyroid, and can decompensate cardiac status due to shifts in fluids and electrolytes; also recorded: Structural lesions in kidney, such as interstitial fibrosis, tubular atrophy and glomerular sclerosis; also recorded: tremor, weight gain, diarrhea and skin rash | occurrence of polyuria-polydipsia syndrome ([5]; treated patients): up to 60%
